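Tested at 5 concentrations; 48 h exposure; 96-well plates; endpoints linearly interpolated, else capped at highest concentration. At the TGI there is no net growth.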
Experiments:
Assay in all cases: growth of human tumour cells (NCI), 48 h
SR leukemia = system: SR leukemia
KM12 colon = system: KM12 colon
EKVX NSCLC = system: EKVX NSCLC
SK-MEL-28 melanoma = system: SK-MEL-28 melanoma
SN12C renal = system: SN12C renal
RXF 393 renal = system: RXF 393 renal
NCI-H226 lung = system: NCI-H226 lung
HT29 colon = system: HT29 colon
MDA-N = system: MDA-N
HOP-62 NSCLC = system: HOP-62 NSCLC
OVCAR-8 ovarian = system: OVCAR-8 ovarian
A498 renal = system: A498 renal
OVCAR-5 ovarian = system: OVCAR-5 ovarian
SW-620 colon = system: SW-620 colon
NCI/ADR-RES ovarian = system: NCI/ADR-RES ovarian
OVCAR-3 ovarian = system: OVCAR-3 ovarian
MALME-3M melanoma = system: MALME-3M melanoma
NCI-H23 lung = system: NCI-H23 lung
IGROV1 ovarian = system: IGROV1 ovarian
UACC-257 melanoma = system: UACC-257 melanoma
K-562 leukemia = system: K-562 leukemia
U251 CNS = system: U251 CNS
UACC-62 melanoma = system: UACC-62 melanoma
SNB-75 CNS = system: SNB-75 CNS
CCRF-CEM leukemia = system: CCRF-CEM leukemia
HCT-15 colon = system: HCT-15 colon
SF-539 CNS = system: SF-539 CNS
LOX IMVI melanoma = system: LOX IMVI melanoma
PC-3 prostate = system: PC-3 prostate
HCT-116 colon = system: HCT-116 colon
MCF7 breast = system: MCF7 breast
786-0 renal = system: 786-0 renal
MDA-MB-231 breast = system: MDA-MB-231 breast
NCI-H460 lung = system: NCI-H460 lung
COLO 205 colon = system: COLO 205 colon
DU-145 prostate = system: DU-145 prostate
HS 578T breast = system: HS 578T breast
SNB-19 CNS = system: SNB-19 CNS
SK-MEL-5 melanoma = system: SK-MEL-5 melanoma
ACHN renal = system: ACHN renal
M14 melanoma = system: M14 melanoma
TK-10 renal = system: TK-10 renal
SF-295 CNS = system: SF-295 CNS
T-47D breast = system: T-47D breast
RPMI-8226 leukemia = system: RPMI-8226 leukemia
BT-549 breast = system: BT-549 breast
MOLT-4 leukemia = system: MOLT-4 leukemia
SK-MEL-2 melanoma = system: SK-MEL-2 melanoma
SF-268 CNS = system: SF-268 CNS
OVCAR-4 ovarian = system: OVCAR-4 ovarian
CAKI-1 renal = system: CAKI-1 renal
HCC-2998 colon = system: HCC-2998 colon
HOP-92 NSCLC = system: HOP-92 NSCLC
SK-OV-3 ovarian = system: SK-OV-3 ovarian
UO-31 renal = system: UO-31 renal
HL-60(TB) leukemia = system: HL-60(TB) leukemia
A549 NSCLC = system: A549 NSCLC
MDA-MB-435 = system: MDA-MB-435
NCI-H522 lung = system: NCI-H522 lung

With `CC1CCC(=O)C(C(=O)CC2CC(=O)NC(=O)C2)C1` (stereo not drawn) the TGI (SR leukemia) was > 100 µM, the TGI (KM12 colon) was > 100 µM and the TGI (EKVX NSCLC) was > 100 µM. For the same compound, the TGI (SK-MEL-28 melanoma) was > 100 µM, the TGI (SN12C renal) was > 100 µM and the TGI (RXF 393 renal) was > 100 µM. For the same compound, the TGI (NCI-H226 lung) was > 100 µM, the TGI (HT29 colon) was > 100 µM and the TGI (MDA-N) was > 100 µM. For the same compound, the TGI (HOP-62 NSCLC) was > 100 µM, the TGI (OVCAR-8 ovarian) was > 100 µM and the TGI (A498 renal) was > 100 µM. For the same compound, the TGI (OVCAR-5 ovarian) was > 100 µM, the TGI (SW-620 colon) was > 100 µM and the TGI (NCI/ADR-RES ovarian) was > 100 µM. The TGI (OVCAR-3 ovarian) was > 100 µM, the TGI (MALME-3M melanoma) was > 100 µM and the TGI (NCI-H23 lung) was > 100 µM. For the same compound, the TGI (IGROV1 ovarian) was > 100 µM, the TGI (UACC-257 melanoma) was > 100 µM and the TGI (K-562 leukemia) was > 100 µM. The TGI (U251 CNS) was > 100 µM, the TGI (UACC-62 melanoma) was > 100 µM and the TGI (SNB-75 CNS) was > 100 µM. For the same compound, the TGI (CCRF-CEM leukemia) was > 100 µM, the TGI (HCT-15 colon) was > 100 µM and the TGI (SF-539 CNS) was > 100 µM. The TGI (LOX IMVI melanoma) was > 100 µM, the TGI (PC-3 prostate) was > 100 µM and the TGI (HCT-116 colon) was > 100 µM. For the same compound, the TGI (MCF7 breast) was > 100 µM, the TGI (786-0 renal) was > 100 µM and the TGI (MDA-MB-231 breast) was > 100 µM. The TGI (NCI-H460 lung) was > 100 µM, the TGI (COLO 205 colon) was > 100 µM and the TGI (DU-145 prostate) was > 100 µM. The TGI (HS 578T breast) was > 100 µM, the TGI (SNB-19 CNS) was > 100 µM and the TGI (SK-MEL-5 melanoma) was > 100 µM. The TGI (ACHN renal) was > 100 µM, the TGI (M14 melanoma) was > 100 µM and the TGI (TK-10 renal) was > 100 µM. The TGI (SF-295 CNS) was > 100 µM, the TGI (T-47D breast) was > 100 µM and the TGI (RPMI-8226 leukemia) was > 100 µM. The TGI (BT-549 breast) was > 100 µM, the TGI (MOLT-4 leukemia) was > 100 µM and the TGI (SK-MEL-2 melanoma) was > 100 µM. For the same compound, the TGI (SF-268 CNS) was > 100 µM, the TGI (OVCAR-4 ovarian) was > 100 µM and the TGI (CAKI-1 renal) was > 100 µM. The TGI (HCC-2998 colon) was > 100 µM, the TGI (HOP-92 NSCLC) was > 100 µM and the TGI (SK-OV-3 ovarian) was > 100 µM. For the same compound, the TGI (UO-31 renal) was > 100 µM, the TGI (HL-60(TB) leukemia) was > 100 µM and the TGI (A549 NSCLC) was > 100 µM. For the same compound, the TGI (MDA-MB-435) was > 100 µM.

With `CC(=O)N1N=C(c2ccc3ccccc3c2O)CC1C(=O)c1ccco1` (stereo not drawn) the TGI (SR leukemia) was 18.6 µM, the TGI (KM12 colon) was 44.8 µM and the TGI (SK-MEL-28 melanoma) was > 100 µM. For the same compound, the TGI (SN12C renal) was > 100 µM, the TGI (RXF 393 renal) was > 100 µM and the TGI (NCI-H226 lung) was > 100 µM. For the same compound, the TGI (HT29 colon) was > 100 µM, the TGI (MDA-N) was > 100 µM and the TGI (HOP-62 NSCLC) was > 100 µM. For the same compound, the TGI (OVCAR-8 ovarian) was > 100 µM, the TGI (A498 renal) was > 100 µM and the TGI (OVCAR-5 ovarian) was > 100 µM. For the same compound, the TGI (SW-620 colon) was > 100 µM, the TGI (NCI/ADR-RES ovarian) was 57.8 µM and the TGI (OVCAR-3 ovarian) was > 100 µM. For the same compound, the TGI (MALME-3M melanoma) was > 100 µM, the TGI (NCI-H23 lung) was > 100 µM and the TGI (IGROV1 ovarian) was > 100 µM. For the same compound, the TGI (UACC-257 melanoma) was > 100 µM, the TGI (K-562 leukemia) was 41 µM and the TGI (U251 CNS) was > 100 µM. The TGI (UACC-62 melanoma) was 62.6 µM, the TGI (SNB-75 CNS) was > 100 µM and the TGI (CCRF-CEM leukemia) was 24.9 µM. The TGI (HCT-15 colon) was > 100 µM, the TGI (SF-539 CNS) was 83.8 µM and the TGI (PC-3 prostate) was > 100 µM. The TGI (HCT-116 colon) was > 100 µM, the TGI (MCF7 breast) was > 100 µM and the TGI (786-0 renal) was > 100 µM. The TGI (MDA-MB-231 breast) was > 100 µM, the TGI (NCI-H460 lung) was > 100 µM and the TGI (COLO 205 colon) was 67.6 µM. For the same compound, the TGI (DU-145 prostate) was > 100 µM, the TGI (HS 578T breast) was > 100 µM and the TGI (SK-MEL-5 melanoma) was > 100 µM. For the same compound, the TGI (ACHN renal) was > 100 µM, the TGI (M14 melanoma) was 57.7 µM and the TGI (TK-10 renal) was > 100 µM. The TGI (SF-295 CNS) was > 100 µM, the TGI (T-47D breast) was > 100 µM and the TGI (RPMI-8226 leukemia) was 85 µM. For the same compound, the TGI (BT-549 breast) was > 100 µM, the TGI (NCI-H522 lung) was 76.6 µM and the TGI (MOLT-4 leukemia) was 24.4 µM. For the same compound, the TGI (SK-MEL-2 melanoma) was 52.8 µM, the TGI (SF-268 CNS) was > 100 µM and the TGI (OVCAR-4 ovarian) was > 100 µM. For the same compound, the TGI (CAKI-1 renal) was > 100 µM, the TGI (HCC-2998 colon) was 55.5 µM and the TGI (HOP-92 NSCLC) was > 100 µM. For the same compound, the TGI (SK-OV-3 ovarian) was > 100 µM, the TGI (UO-31 renal) was > 100 µM and the TGI (A549 NSCLC) was > 100 µM. For the same compound, the TGI (MDA-MB-435) was > 100 µM.

— PubChem BioAssay (NCI)
